# Columns and labels:
# HeLa cells [1] = assay: Cell morphology after single and combination therapy (phase contrast microscope); type: cell-based; settings: 7th day of the treatment
# From the text: The present inventors cultured the cells in normal media additionally for 7 days to observe morphological changes.
# HeLa-Luc cells = assay: Cervix cancer xenograft model, luciferase bioluminescence tumor size; type: in vivo, balb-C nude mouse; settings: after 2 weeks; siRNA 2 mg/kg and/or cisplatin 0.5 mg/kg, intraperitoneal, every other day by turns, 7 times
# Experimental: To generate the cervix cancer xenograft model, 5×10^6 HeLa-Luc cells were injected subcutaneously into a 5 week old female balb-C nude mouse. 7 days later, tumor generation was confirmed. Then, the mouse was treated with siRNA (2 mg/kg) and cisplatin (0.5 mg/kg) every other day by taking turns, 7 times (intraperitoneal injection).
# Isofluran was used as an anesthetic for in vivo imaging. Luciferase activity, which increases with the growth of a tumor, was measured 15 minutes after intraperitoneal injection of luciferin.
# Bioluminescence signal released by luciferase was represented as the unit of photons/second/steradian/cm2, and the luciferase signal increases as the tumor grew.
# HeLa cells [2] = assay: MTT assay, cytotoxic effect of cisplatin; type: cell-based; settings: cisplatin 0.625-80 μM for 48 hours
# Experimental: The present inventors also investigated cytotoxic effect of cisplatin on HeLa cells by MTT assay. HeLa cells were treated with different concentrations of cisplatin (0.625, 1.25, 2.5, 5, 10, 25, 40, and 80 μM) for 48 hours, followed by MTT assay to measure the cell growth inhibitory effect.
# HeLa cells [3] = assay: Long-term combination therapy of E6 siRNA and cisplatin, trypan blue cell count; type: cell-based; settings: 7th day; siRNA 100 nM transfected twice and/or cisplatin 1.25 μM for 4 days
# Experimental: To evaluate cytotoxic effect of the long-term combination therapy of synthetic E6 siRNA and cisplatin chemotherapy on cervix cancer cells, HeLa cells were co-treated for a long period of time.
# Then, the single therapy group (treated with 18E6-1 siRNA, 18E6-2 siRNA or cisplatin alone) and the combination therapy group (treated with cisplatin and 18E6-1 siRNA or 18E6-2 siRNA) were compared. To obtain the maximum RNAi efficiency, siRNA transfection was repeated after 24 hours from the first transfection. For the transfection, 13 μl of opti-MEM (Gibco, USA) and 2 μl of oligofectamine were added into a 1.5 ml E-tube. To the other 1.5 ml E-tube were added 100 nM of siRNA and opti-MEM to make total volume […]. 5 minutes later, the content of the E-tube containing oligofectamine was transferred into the other E-tube to make the total volume 200 μl, which stood by for 20 minutes to form a complex. […] On the 7th day of culture, the cells were recovered by treating with trypsin, stained with 0.3% trypan blue solution and counted with hemocytometer.
# The cells were cultured in normal growth medium for additional 7 days, and harvested by treating them with trypsin. The cells were stained with 0.3% trypan blue and counted with hemocytometer (FIG. 11). […]
# HeLa cells [4] = assay: Western blotting of p53 in HeLa cells treated with cisplatin; type: cell-based; settings: 40 μM of cisplatin
# Experimental: To investigate the effect of cisplatin on cervix cancer cells, HeLa cells were treated with cisplatin. 24 hours before the treatment, 1×10^6 cells were distributed in 100 mm culture dish and cultured at 37° C. with 5% CO2 and 100% humidity. Then, the cells were treated with 40 μM of cisplatin. 24 hours later, Western blotting was performed to measure the level of p53.
# HeLa cells [5] = assay: Apoptosis, annexin V and propidium iodide flow cytometry; type: cell-based; settings: 7th day of the treatment, attached cells
# From the text: To examine apoptosis in the cells treated with 18E6-1 siRNA or 18E6-2 siRNA, the cells attached on the 7th day of the treatment were collected, stained with annexin V and propidium iodide (PI) and analyzed by flow cytometry. Apoptosis rates between the single therapy group and the combination therapy group were compared.
# HeLa cells [6] = assay: Senescence, SA β-Gal activity staining; type: cell-based
# Experimental: The present inventors further investigated whether the combination therapy of cisplatin with 18E6 siRNAs induced HeLa cell senescence. The inventors measured SA β-Gal activity on the 7th day of the treatment. The cells were washed with PBS using a senescence detection kit (BIoVision, USA) and treated with SA-β-gal staining solution at 37° C. for 12 hours. The cells stained with blue were observed under microscope (×100-200).
# Three photographs of the cells were taken randomly to investigate the stained cells (FIG. 17).
compound,measurement,setting,value
N.N.[Cl][Pt][Cl] [cisplatin],cell growth observed by microscope,HeLa cells [1],grown regularly
same,tumor size,HeLa-Luc cells,not much different
same,cell survival rate,HeLa cells [2],reduced cisplatin dose dependently
same,cell growth (cell number),HeLa cells [3],not significant
same,expression level of p53,HeLa cells [4],dramatically increased
same,time at which the level of p53 reached the peak,HeLa cells [4],24 h
same,time for which the high level of p53 was constantly observed,HeLa cells [4],48 h
same,apoptosis,HeLa cells [5],not increased
same,number of stained cells in three random photographs,HeLa cells [6]; 7th day of the treatment (FIG. 17),Only a small amount of cells were stained
same,SA-β-Gal stained (blue) cells,"HeLa cells [6]; 7th day of the treatment, microscope (FIG. 16)",some of the blue cells
